Assay results taken from patent publication US6596774B1, “Synthesis, lipid peroxidation and cytotoxic evaluation of 10-substituted 1,5-dichloro-9(10H)-anthracenone derivatives” (priority 2001, dated 2003).
pIC50: −log10 of the molar value. Counter-ions that a name gives are not always drawn.

Experiments:
[1] = test system: Chinese Hamster Ovary (CHO) Cells; assay: Cytotoxic activity test (cell proliferation assay), CHO cells as normal cells; assay type: cell-based; details: for pIC50: Cricetulus griseus, 50% inhibition of cellular growth following 48 h of drug exposure; for toxicity in CHO compared with mitoxantrone (in words): versus mitoxantrone
Excerpt: (§1) We evaluated the ability of the compounds to inhibit the growth of human oral epidermoid carcinoma cells (KB cell line), human cervical carcinoma cells of ME 180 (GBM8401) and Chinese hamster ovary (CHO) cells as normal cells, and lipid peroxidation in model membranes, respectively.
(§2) Cytotoxic Activity Test. Human oral epidermoid carcinoma cells (KB cell line), human cervical carcinoma cells of ME 180 (GBM8401) and Chinese hamster ovary (CHO) cells grown in plateau phase were cultivated, and the cell proliferation assay was performed as previously described. Inhibition of cellular growth was calculated by comparison of the mean values of the test compound (N=3) with the control (N=6-8) activity: (1-test compound/control)×100.

[2] = test system: Human Oral Epidermoid Carcinoma Cells (KB cell line); assay: Cytotoxic activity test (cell proliferation assay), KB cells; assay type: cell-based; details: 50% inhibition of cellular growth following 48 h of drug exposure
Excerpt: as §1, §2

[3] = test system: Iron-induced Lipid Peroxidation in Rat Brain Homogenates; assay: Assay of lipid peroxidation (TBA method); assay type: biochemical, Wistar rats; details: for efficiency in lipid peroxidation inhibition versus ascorbic acid, (+)-α-tocopherol and mitoxantrone (in words) / Inhibition (%) 0.005 mM: 0.005 mM; for Inhibition (%) 0.005 mM / Inhibition (%) 0.05 mM / Inhibition % (0.5 mM) / Inhibition (%) 5 mM: Mean ± S.E., n = 4; for inhibitory effect on lipid peroxidation compared to ascorbic acid, (+)-α-tocopherol and mitoxantrone (in words) / Inhibition % (0.5 mM): 0.5 mM
Protocol: The inhibitory effect on lipid peroxidation of these compounds were evaluated with rat brain phospholipid liposomes which provide an ideal model system for lipid peroxidation studies by Teng C. M., et. al., Eur. J. Pharmacol., vol. 303, pp. 129-139 (1996).
Assay of Lipid Peroxidation. Rat brain homogenate was prepared from the brains of freshly killed Wistar rats and its peroxidation in the presence of iron ions was measured by the thiobarbituric acid (TBA) method as described. The extent of lipid peroxidation was estimated as thiobarbituric acid-reactive substances and was read at 532 nm in a spectrophotometer (Shimadzu UV-160).

[4] = test system: Human Cervical Carcinoma Cells of ME 180 (GBM8401); assay: Cytotoxic activity test (cell proliferation assay), GBM8401 cells; assay type: cell-based; details: for pIC50: Homo sapiens, ME-180, GBM8401 cells, 50% inhibition of cellular growth following 48 h of drug exposure
Excerpt: as §1, §2

SMILES | pIC50 [1] | toxicity in CHO compared with mitoxantrone (in words) [1] | pIC50 [2] | efficiency in lipid peroxidation inhibition versus ascorbic acid, (+)-α-tocopherol and mitoxantrone (in words) [3] | Inhibition (%) 0.005 mM ([3]; Table 3) [%] | Inhibition (%) 0.05 mM ([3]; Table 3) [%] | inhibitory effect on lipid peroxidation compared to ascorbic acid, (+)-α-tocopherol and mitoxantrone (in words) [3] | Inhibition % (0.5 mM) ([3]; Table 2) [%] | Inhibition % (0.5 mM) ([3]; Table 3) [%] | Inhibition (%) 5 mM ([3]; Table 3) [%] | cytotoxicity on GBM in vitro assay (in words) [4] | pIC50 [4]
Cc1ccc(NC2c3cccc(Cl)c3C(=O)c3cccc(Cl)c32)cc1 (centres unmarked) [Compound 4d, 10-(p-Toluidino) 1,5-dichloro-9(10 H)-anthracenone] | 5.52 | more toxic in CHO than mitoxantrone | 4.95 | significantly more efficient | 33 ± 2.7 | 94 ± 3.5 | better inhibitory effect | 100 | 100 | 100 | high cytotoxicity and significant activity | 5.34
Cc1c(C)c2c(c(C)c1O)CC[C@@](C)(CCC[C@H](C)CCC[C@H](C)CCCC(C)C)O2 [(+)-α-tocopherol, reference compound] | – | – | – | – | 0 | 0 | – | 53 ± 4.4 | 53 ± 1.7 | 100 | – | –
CC(C)OC1c2cccc(Cl)c2C(=O)c2cccc(Cl)c21 (centres unmarked) [Compound 3d, 10-(2-Propyloxy) 1,5-dichloro-9(10 H)-anthracenone] | 4.82 | – | 4.66 | – | – | – | – | 13 ± 1.3 | – | – | – | 4.18
O=C1c2cccc(Cl)c2C(OCc2ccccc2)c2cccc(Cl)c21 (centres unmarked) [Compound 3g, 10-Benzyloxy 1,5-dichloro-9(10 H)-anthracenone] | 4.61 | – | 4.03 | – | – | – | – | 16 ± 1.5 | – | – | – | 4.73
Cc1ccccc1NC1c2cccc(Cl)c2C(=O)c2cccc(Cl)c21 (centres unmarked) [Compound 4c, 10-(o-Toluidino) 1,5-dichloro-9(10 H)-anthracenone] | 5.42 | more toxic in CHO than mitoxantrone | 5.47 | – | – | – | – | 73 ± 3.5 | – | – | high cytotoxicity and significant activity | 5.62
Cc1cccc(NC2c3cccc(Cl)c3C(=O)c3cccc(Cl)c32)c1 (centres unmarked) [Compound 4b, 10-(m-Toluidino) 1,5-dichloro-9(10 H)-anthracenone] | 5.21 | – | 5.02 | significantly more efficient | 23 ± 2.4 | 92 ± 4.1 | better inhibitory effect | 100 | 100 | 100 | – | 4.95
O=C1c2c(O)ccc(O)c2C(=O)c2c(NCCNCCO)ccc(NCCNCCO)c21 [mitoxantrone-HCl, reference compound] | 5.40 | – | 5.77 | – | 10 ± 1.1 | 52 ± 3.5 | – | 64 ± 2.8 | 64 ± 2.1 | 100 | – | 5.82
CC(C)COC1c2cccc(Cl)c2C(=O)c2cccc(Cl)c21 (centres unmarked) [Compound 3f, 10-(iso-Butyloxy) 1,5-dichloro-9(10 H)-anthracenone] | 4.70 | – | 4.83 | – | – | – | – | 38 ± 3.1 | – | – | – | 4.36
O=C1O[C@H]([C@@H](O)CO)C(O)=C1O [ascorbic acid, reference compound] | – | – | – | – | 7 ± 0.5 | 22 ± 2.2 | – | 87 ± 3.1 | 87 ± 2.5 | 100 | – | –
CCOC1c2cccc(Cl)c2C(=O)c2cccc(Cl)c21 (centres unmarked) [Compound 3b, 10-Ethoxy 1,5-dichloro-9(10 H)-anthracenone] | 5.24 | – | 5.21 | – | – | – | – | 7 ± 0.1 | – | – | – | 4.66
CCN(CC)C1c2cccc(Cl)c2C(=O)c2cccc(Cl)c21 (centres unmarked) [Compound 4a, 10-Diethylamino 1,5-dichloro-9(10 H)-anthracenone] | 4.82 | – | 4.76 | – | – | – | – | 12 ± 1.4 | – | – | high cytotoxicity and significant activity | 5.12
CCCCOC1c2cccc(Cl)c2C(=O)c2cccc(Cl)c21 (centres unmarked) [Compound 3e, 10-(Butyloxy) 1,5-dichloro-9(10 H)-anthracenone] | 5.10 | – | 4.53 | – | – | – | – | 31 ± 3.7 | – | – | – | 4.53
CCCOC1c2cccc(Cl)c2C(=O)c2cccc(Cl)c21 (centres unmarked) [Compound 3c, 10-Propyloxy 1,5-dichloro-9(10 H)-anthracenone] | 4.38 | – | 5.74 | – | – | – | – | 29 ± 2.5 | – | – | – | 4.95
COC1c2cccc(Cl)c2C(=O)c2cccc(Cl)c21 (centres unmarked) [Compound 3a, 10-Methoxy 1,5-dichloro-9(10 H)-anthracenone] | 5.54 | more toxic in CHO than mitoxantrone | 5.06 | – | – | – | – | 7 ± 0.1 | – | – | – | 4.63
